From patent US11548925B2, “CACNA1H-derived tumor antigen polypeptide and use thereof” (Genoimmune Therapeutics Co., Ltd., priority 2016, dated 2023)

How the values were obtained:
CD8+ T cells [1] = assay: ELISPOTs detection of IFN-γ secretion by peptide-specific CD8+ T cells; type: cell-based, human; conditions: for Conclusion (immunogenicity): ELISPOTs; for Number of spots in the mutant peptide group / Number of spots in the wild-type peptide group: T cells activated by the listed peptide, 20 h; for Number of spots in the mutant peptide group: T2 cells loaded with TLISSLMPI; for Number of spots in the wild-type peptide group: T2 cells loaded with TLISSLRPI
Description: In this example, a ELISPOTs detection kit (Cat. No.: 3420-4AST-10, MABTECH) was used to verify the activation of an immune response of CD8+ T cells by the peptides of the present invention.
Principle of the ELISPOTs detection method is as follows: CD8+ T cells can specifically recognize the complex of HLA-A0201 and a peptide. The population of T cells recognizing the complex of the peptide and HLA-A0201 is varying, depending on the peptide sequence. Since T2 cells express HLA-A0201, CD8+ T cells can specifically recognize the T2 cells loaded with a peptide. After specific recognition of the complex of HLA-A0201 and the peptide, peptide-specific CD8+ T cells can be activated again to secrete IFN-γ interferon. The IFN-γ interferon secreted by the activated CD8+ T cells can be captured by antibodies on the ELISPOTs plate. Finally, the enzyme-conjugated antibody that recognizes IFN-γ can degrade the substrate through the enzyme conjugated thereto and develop color, eventually producing spots. The number of spots represents the number of cells that are activated to secrete IFN-γ interferon.
The cultured cells from Example 3 were added, along with T2 cells loaded with the mutant peptide […] (SEQ ID NO: 2) of the present invention and the wild-type peptide […] (SEQ ID NO: 1), respectively, into ELISPOTs plates, and cultured for 20 h, and then a ELISPOTs detection was performed (see the kit instruction). Finally, the spots produced by the ELISPOTs detection were counted.
The peptide was determined to have immunogenicity when the number of spots of the tested peptide/the number of spots of an unrelated peptide>2; that is, if the number of spots caused by the tested peptide is more than twice than that of an unrelated peptide, the tested peptide is determined to have immunogenicity.

T2 cells = assay: LDH release assay, killing of peptide-loaded T2 target cells by CD8+ T cells; type: cell-based, human; conditions: 4 h
Experimental: The cells cultured in Example 3 were co-cultured with T2 cells loaded with the mutant peptides of the present invention or the wild-type peptide or without a peptide. A maximum release well, a volume correction well, a medium control well, a spontaneous release well and control wells for example at different effector-to-target ratios (ratios of T cells to T2 cells) were set in this experiment. Three replicate wells were set for each group. After 4 h, 50 μl of the co-culture supernatant was taken out and added to 50 μl of LDH substrate mixture to catalyze the reaction of LDH substrate. Finally, the plates were read at a wavelength of 490 nm, with a reference wavelength of 680 nm, and the killing activity against target cells T2 was calculated based on the control wells.
The formula for calculating the killing activity is: Killing efficiency (%)=(test well−spontaneous release of effector cells−spontaneous release of target cells+medium well)/(maximum release of target cells−volume correction well−spontaneous release of target cells+medium well)×100%

CD8+ T cells [2] = assay: ELISPOTs detection of IFN-γ secretion by peptide-specific CD8+ T cells; type: cell-based, human; conditions: ratio of spot numbers; >2 immunogenic
[3] = system: H2087-TLISSLMPI (SEQ ID NO: 2) subcutaneous tumor; assay: DC vaccine infected with recombinant lentivirus containing peptide gene in H2087-[…] tumor model; type: in vivo, NOD/SCID mice; conditions: DC infected with lentivirus carrying peptide gene, 2 injections
Description: The following DNA sequences were synthesized: “[…]” (SEQ ID NO: 8), encoding the wild-type peptide […] (SEQ ID NO: 1); “[…]” (SEQ ID NO: 9), encoding the mutant peptide […] (SEQ ID NO: 2); “[…]” (SEQ ID NO: 10), encoding the SEQ ID NO: 2 […]'s variant peptide […] (SEQ ID NO: 3); “[…]” (SEQ ID NO: 11), encoding the SEQ ID NO: 2 […]'s variant peptide […] (SEQ ID NO: 4); “[…]” (SEQ ID NO: 12), encoding the SEQ ID NO: 2 […]'s variant peptide […] (SEQ ID NO: 5); “[…]” (SEQ ID NO: 13), encoding the SEQ ID NO: 2 […]'s variant peptide […] (SEQ ID NO: 6); and “[…]” (SEQ ID NO: 14), encoding the SEQ ID NO: 2_[…]'s variant peptide […] (SEQ ID NO: 7). The wild-type peptide […] (SEQ ID NO: 1), the mutant peptide […] (SEQ ID NO: 2) and the mutant peptide SEQ ID NO: 2 […]'s variant peptides were constructed into the lentiviral vector pHBLV-Puro, respectively, to name as pHBLV-Puro-[…] (SEQ ID NO: 1), pHBLV-Puro-[…] (SEQ ID NO: 2), pHBLV-Puro-[…] (SEQ ID NO: 3), pHBLV-Puro-[…] (SEQ ID NO: 4), pHBLV-Puro-[…] (SEQ ID NO: 5), pHBLV-Puro-[…] (SEQ ID NO: 6) and pHBLV-Puro-[…] (SEQ ID NO: 7), respectively. The seven lentiviral constructs were co-transfected into 293T cells with helper plasmids pSPAX2 and pMD2G for packaging, and lentiviruses of the wild-type peptide […] (SEQ ID NO: 1), the mutant peptide […] (SEQ ID NO: 2) and the mutant peptide's variant peptides were obtained.
600-900 ml of anticoagulated peripheral blood was collected from healthy volunteers for isolating peripheral blood mononuclear cells (PBMCs) via Ficoll. Cells were collected for use. 2×10^7 PBMCs per 0.5 ml was intraperitoneally injected into each of 300 NOD SCID mice without immune leakage to perform human immune reconstitution in NOD SCID mice. […]
The human non-small cell lung adenocarcinoma cell line H2087-[…] […] The long diameter a and the short diameter b of the tumor were measured with a vernier caliper every 2-3 days and the size of the tumor was calculated as a*b*b/2. The mice and tumors were weighed and recorded every day. […] The tumor volume and the survival rate of mice were recorded every 2 days. […]

[4] = effector-to-target ratio 1:1, target T2 loaded with TLISSLMPI
[5] = effector-to-target ratio 1:1, target T2 loaded with wild-type TLISSLRPI
[6] = effector-to-target ratio 10:1, target T2 loaded with TLISSLMPI
[7] = effector-to-target ratio 10:1, target T2 loaded with wild-type TLISSLRPI

Sequence	Conclusion (immunogenicity) (CD8+ T cells [1])	Number of spots in the mutant peptide group (CD8+ T cells [1])	Number of spots in the wild-type peptide group (CD8+ T cells [1])	Killing efficiency (T2 cells; [4]) [%]	Killing efficiency (T2 cells; [5]) [%]	Killing efficiency (T2 cells; [6]) [%]	Killing efficiency (T2 cells; [7]) [%]	Fold (tested/wild-type) (CD8+ T cells [2])	Tumor-suppressing effect [3]
TLISSLMPL	immunogenic	317	37	8.23	3.12	39.66	5.71	8.57	
TLISSLMPV	immunogenic	325	41	8.56	2.57	43.82	4.73	7.93	
TLISSLRPI [wild-type CACNA1H peptide used as comparison, reference compound]									no effect on this tumor
TMISSLMPI	immunogenic	321	27	8.33	2.85	41.16	5.13	11.88	
TMISSLMPL	immunogenic	338	39	9.12	3.13	45.23	5.83	8.67	
TMISSLMPV	immunogenic	345	35	9.32	3.51	47.35	6.31	9.86	
